PubChem BioAssay (NCI)
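Dose response: 5 concentrations. Exposure: 48 h. Format: 96-well plates. Endpoint: linear interpolation; highest concentration if not reached. The concentration for full growth arrest is given as TGI.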

Experiments:
Experiment in all cases: NCI-60 cell line screen, 48 h
NCI-H226 lung = system: NCI-H226 lung
IGROV1 ovarian = system: IGROV1 ovarian
SF-268 CNS = system: SF-268 CNS
HCT-116 colon = system: HCT-116 colon
SN12C renal = system: SN12C renal
BT-549 breast = system: BT-549 breast
COLO 205 colon = system: COLO 205 colon
NCI-H23 lung = system: NCI-H23 lung
DU-145 prostate = system: DU-145 prostate
EKVX NSCLC = system: EKVX NSCLC
MDA-MB-231 breast = system: MDA-MB-231 breast
MCF7 breast = system: MCF7 breast
SK-MEL-2 melanoma = system: SK-MEL-2 melanoma
HL-60(TB) leukemia = system: HL-60(TB) leukemia
UO-31 renal = system: UO-31 renal
NCI/ADR-RES ovarian = system: NCI/ADR-RES ovarian
NCI-H522 lung = system: NCI-H522 lung
SK-MEL-5 melanoma = system: SK-MEL-5 melanoma
CCRF-CEM leukemia = system: CCRF-CEM leukemia
HCC-2998 colon = system: HCC-2998 colon

| Compound | TGI (NCI-H226 lung) | TGI (IGROV1 ovarian) | TGI (SF-268 CNS) | TGI (HCT-116 colon) | TGI (SN12C renal) | TGI (BT-549 breast) | TGI (COLO 205 colon) | TGI (NCI-H23 lung) | TGI (DU-145 prostate) | TGI (EKVX NSCLC) | TGI (MDA-MB-231 breast) | TGI (MCF7 breast) | TGI (SK-MEL-2 melanoma) | TGI (HL-60(TB) leukemia) | TGI (UO-31 renal) | TGI (NCI/ADR-RES ovarian) | TGI (NCI-H522 lung) | TGI (SK-MEL-5 melanoma) | TGI (CCRF-CEM leukemia) | TGI (HCC-2998 colon) |
| --- | --- | --- | --- | --- | --- | --- | --- | --- | --- | --- | --- | --- | --- | --- | --- | --- | --- | --- | --- | --- |
| CN(C)C(=O)C1CCN(Cc2c[nH]c3ccccc23)CC1 | > 100 µM | > 100 µM | > 100 µM | > 100 µM | > 100 µM | > 100 µM | > 100 µM | > 100 µM | > 100 µM | > 100 µM | > 100 µM | > 100 µM | > 100 µM | > 100 µM | > 100 µM | > 100 µM | > 100 µM | > 100 µM | – | – |
| CC(NC(NC(C)C12CC3CC(CC(C3)C1)C2)=C(C(Cl)=C(Cl)Cl)[N+](=O)[O-])C12CC3CC(CC(C3)C1)C2 (centres undefined) | > 61.7 µM | 30.1 µM | > 59.5 µM | 40 µM | 23.2 µM | > 91.6 µM | 22.6 µM | 34.3 µM | > 100 µM | > 89.4 µM | 16 µM | > 58.7 µM | > 67.6 µM | – | > 100 µM | > 100 µM | 24.3 µM | 36.3 µM | 4.64 µM | > 75 µM |
| OC(c1ccccc1)C(F)(F)c1nc2ccccc2o1 (centres undefined) | > 100 µM | > 100 µM | > 100 µM | > 100 µM | – | > 100 µM | > 100 µM | > 100 µM | > 100 µM | > 100 µM | > 100 µM | > 100 µM | > 100 µM | > 100 µM | > 100 µM | > 100 µM | – | > 100 µM | > 100 µM | > 100 µM |
| C=C1CC(COc2ccc3c(C)cc(=O)oc3c2)(c2ccccc2)OC1=O (centres undefined) | 15.7 µM | 3.57 µM | 23.9 µM | 2.73 µM | 21.1 µM | 3.18 µM | 2.76 µM | 5.53 µM | 6.68 µM | 25.2 µM | 9.07 µM | 2.71 µM | 3.65 µM | – | 14.5 µM | 16.6 µM | 3.37 µM | 5.49 µM | – | 10.1 µM |
| COc1ccc2c(-c3ccc(O)cc3)c(Oc3ccc(Cl)cc3)c(=O)oc2c1 | > 43.3 µM | 9.99 µM | 24.6 µM | > 33.6 µM | 19.2 µM | 23.3 µM | > 36.5 µM | 8.32 µM | 24.7 µM | 12.5 µM | 20.6 µM | > 23.1 µM | 11.2 µM | – | 13.6 µM | > 46 µM | 6.53 µM | 10.4 µM | > 100 µM | 25.7 µM |
| O=[N+]([O-])c1cccc2nc3ccccc3c(NCCCN3CCCCC3)c12 | 0.0553 µM | 0.0758 µM | 0.199 µM | 0.0629 µM | 0.0443 µM | 0.114 µM | 0.0201 µM | 0.0231 µM | 0.0295 µM | 0.0401 µM | 0.0509 µM | 0.11 µM | 0.0296 µM | 0.511 µM | – | 4.9 µM | 0.0236 µM | 0.0221 µM | – | – |
| CCC(=O)NCCc1c2c3c(ccnc3c3ncsc13)-c1ccccc1N2 | 16.7 µM | > 100 µM | > 100 µM | 51.2 µM | > 100 µM | 57.3 µM | > 100 µM | > 100 µM | > 100 µM | > 100 µM | > 68.4 µM | > 100 µM | > 100 µM | > 13.4 µM | > 100 µM | > 100 µM | 38.4 µM | 34.2 µM | > 100 µM | – |
| COC(=O)c1c(C(=O)OC)c2c3ccccc3n(C)c2c2c1c1ccccc1n2C | > 100 µM | > 100 µM | – | > 100 µM | > 100 µM | > 100 µM | > 100 µM | > 100 µM | > 100 µM | > 100 µM | > 100 µM | > 100 µM | > 100 µM | – | > 100 µM | > 100 µM | > 100 µM | > 100 µM | > 100 µM | > 100 µM |
| CCN(CC)COC(=S)S | > 100 µM | > 100 µM | > 100 µM | > 100 µM | > 100 µM | > 100 µM | > 100 µM | > 100 µM | > 100 µM | > 100 µM | > 100 µM | > 100 µM | 57 µM | – | > 100 µM | > 100 µM | > 94.7 µM | > 100 µM | – | > 78.1 µM |
| COc1ccc(/C=C2/CCS(=O)(=O)c3ccc(C)cc3C2=O)cc1OC | 70.8 µM | 22.4 µM | > 100 µM | 21.8 µM | 73.9 µM | 35.6 µM | 28.4 µM | 27.3 µM | 15.1 µM | 40.3 µM | 39.1 µM | > 100 µM | 60.9 µM | 51.5 µM | 20.1 µM | 46.5 µM | – | – | 69.8 µM | 19.6 µM |
| Cc1cc(C)n(C(=O)CSc2nnc(SCC(=O)n3nc(C)cc3C)s2)n1 | > 100 µM | – | > 100 µM | > 100 µM | > 100 µM | > 100 µM | > 100 µM | > 100 µM | > 100 µM | > 100 µM | > 100 µM | > 100 µM | – | > 100 µM | > 100 µM | > 100 µM | – | > 100 µM | > 100 µM | > 100 µM |
| COc1ncnc2c1cnn2Cc1cn(CCCCO)nn1 | > 100 µM | > 100 µM | > 100 µM | > 100 µM | > 100 µM | > 100 µM | > 100 µM | > 100 µM | > 100 µM | > 100 µM | > 100 µM | > 100 µM | > 100 µM | – | > 100 µM | > 100 µM | > 100 µM | > 100 µM | > 100 µM | > 100 µM |
| COc1ccccc1NC(=S)Nc1cc(C)ccn1 | > 100 µM | > 100 µM | > 100 µM | > 100 µM | > 100 µM | > 100 µM | > 100 µM | – | > 100 µM | > 100 µM | 60.7 µM | > 100 µM | > 100 µM | > 100 µM | > 100 µM | > 100 µM | > 100 µM | > 100 µM | > 100 µM | – |
| Cc1cc(C)n(CN(Cn2nc(C)cc2C)c2ccccc2)n1 | – | 95.2 µM | 52.6 µM | 41.4 µM | 98.7 µM | 69.2 µM | 28.1 µM | 40.8 µM | > 100 µM | 72.8 µM | > 100 µM | 68.1 µM | 44.6 µM | 27.3 µM | 78.5 µM | 57.7 µM | 52.8 µM | 62.4 µM | 83.9 µM | – |
| N#CCCN(CCC#N)c1ccc(C(N=Nc2ccc(Cl)cc2)=Nc2ccc(F)cc2)cc1 | > 100 µM | > 100 µM | > 100 µM | > 100 µM | > 100 µM | > 100 µM | > 100 µM | > 100 µM | > 100 µM | > 100 µM | > 100 µM | > 100 µM | – | – | > 100 µM | > 100 µM | > 100 µM | > 100 µM | > 100 µM | > 100 µM |
| O=[N+]([O-])c1nccn1CCCNCCCn1ccnc1[N+](=O)[O-] | > 100 µM | > 100 µM | > 100 µM | > 100 µM | > 100 µM | > 100 µM | > 100 µM | > 100 µM | > 100 µM | > 100 µM | > 100 µM | > 100 µM | > 100 µM | > 100 µM | > 100 µM | > 100 µM | > 100 µM | > 100 µM | > 100 µM | – |
| Nc1ccccc1N=Nc1c(S(=O)(=O)O)cc2cc(S(=O)(=O)O)cc(O)c2c1O | > 100 µM | > 100 µM | > 100 µM | > 100 µM | > 100 µM | > 100 µM | > 100 µM | > 100 µM | > 100 µM | > 100 µM | > 100 µM | > 100 µM | – | – | > 100 µM | > 100 µM | > 100 µM | > 100 µM | > 100 µM | > 100 µM |
| CN1C(=O)C23CCCCC2CC1(c1ccccc1)S3 (centres undefined) | > 100 µM | > 100 µM | > 100 µM | > 100 µM | > 100 µM | > 100 µM | > 100 µM | > 100 µM | > 100 µM | > 100 µM | > 100 µM | > 100 µM | > 100 µM | > 100 µM | > 100 µM | > 100 µM | > 100 µM | > 100 µM | – | – |
| CC1=CC(C)(C)Nc2ccc(CSc3ccccc3)cc21 | > 100 µM | > 100 µM | > 100 µM | 91.9 µM | 62.1 µM | > 100 µM | 52.8 µM | > 100 µM | 71.5 µM | 59.9 µM | 94.1 µM | 60.9 µM | 52.2 µM | – | 50.8 µM | > 100 µM | 46.5 µM | 32.9 µM | – | 45.1 µM |
| C[C@]12CC/C(=N\OCCN3CCCCC3)C=C1CCC1C2CC[C@@]2(C)C1CC[C@]2(C)O (some centres undefined) | 14.2 µM | 35.5 µM | 31 µM | 21.3 µM | 33.5 µM | 33.5 µM | 20.9 µM | 33.5 µM | 44.8 µM | 44.6 µM | 28.2 µM | 71.7 µM | 28.8 µM | – | 23.2 µM | 20.5 µM | 7.52 µM | 32.4 µM | 11.3 µM | 22.1 µM |
